The subject of experiment [1] is male mice. In words: YKL-05-099 once daily for 2 weeks: bone RNA, static and dynamic histomorphometry. It is filed as in vivo, mouse. The following applies: 6 mg/kg once daily i.p. How it is done:
Whole cell extracts were generated, followed by immunoblotting. […] RNA was prepared, and gene expression analyzed by RT-qPCR. […] 2 hours later, animals were sacrificed, RNA was prepared from femurs, and gene expression analyzed by RT-qPCR. […] Animals were sacrificed 2 hours after the final dose, and RNA from femurs analyzed for the indicated genes. BGLAP encodes osteocalcin. * indicated p<0.01 versus vehicle, # indicates p<0.05 versus vehicle. (FIGS. 8E to 8K), static and dynamic histomorphometry were performed on the tibia from the same mice as in FIG. 8D. Each data point represents an individual mouse, p values for each difference are shown on the graph. (FIG. 8L) Representative photomicrograph showing increased osteoblasts on cancellous bone surfaces from YKL-05-099-treated mice.
To determine effects on bone mass and cellular composition/activity, static and dynamic histomorphometry were performed. […] Other than the observed reduction in osteoclast numbers, these findings are quite similar to the effects of once daily PTH treatment.
All animals were housed in the Center for Comparative Medicine at the Massachusetts General Hospital, and all experiments were approved by the hospital's Subcommittee on Research Animal Care. HDAC5-null mice (70) and HDAC4 f/f mice (71) were generously provided by Dr. Eric Olson (University of Texas Southwestern Medical Center, Dallas, TX) and were backcrossed to C57B/6 mice for at least 6 generations. DMP1-Cre mice (27) were generously provided by Dr. Jian (Jerry) Feng (Texas A&M University, Baylor College of Dentistry, Dallas, TX). “DKO” HDAC4/5 mice were of the following genotype: HDAC4f/f; HDAC5−/−; DMP1-Cre. SIK2 f/f mice were as described (40), and were bred to DMP1-Cre animals to generate SIK2^OcyKO mice. ES cells carrying the targeted SOST allele Sost^tm1(KOMP)Vleg, in which the SOST coding sequence has been replaced by LacZ and floxed Neo cassette, were obtained from the Knockout Mouse Project (KOMP) Repository. Clone VG10069-BE8 was injected into blastocysts, and the resulting SOST+/− mice were crossed to HDAC5 mutant animals to generate compound heterozygous mice. In all instances, skeletal phenotypes were evaluated in 8 week-old sex-matched littermates. For acute effects of PTH on bone gene expression, animals were treated with PTH (1-34, 300 μg/kg, subcutaneous administration) and then sacrificed 90 minutes later. For acute effects of YKL-05-093 on bone gene expression, animals were treated with the indicated doses of compound (dissolved in PBS+25 mM HCl) or solvent via intraperitoneal injections, and sacrificed 2 hours later. […] For in vivo sclerostin antibody treatment, mice were treated twice weekly with sclerostin antibody (50 mg/kg, subcutaneous administration, generously provided by Dr. Michael Ominsky, Amgen) for 6 weeks. Power calculations were performed based on pilot experiments in which standard deviations and magnitudes of effect sizes were estimated. For experiments in which mice were treated with either vehicle or PTH (or YKL-05-093), mice were assigned to alternating treatment groups in consecutive order.
Right tibia from 8-week-old mice were subjected to bone histomorphometric analysis. The mice were injected 20 mg/kg body weight of calcein and 40 mg/kg body weight of demeclocycline on 7 and 2 days before necropsy, respectively. The tibia was dissected and fixed in 70% ethanol for 3 days. Fixed bones were dehydrated in graded ethanol, then infiltrated and embedded in methylmethacrylate without demineralization. Undecalcified 4-μm-thick longitudinal sections were obtained using microtome (RM2255, Leica Biosystems., IL, USA). Sections were left unstained for dynamic parameters measurement, and consecutive sections were stained with tartrate-resistant acid phosphatase and counterstained with toluidine blue for measurement of cellular parameters. […]

Experiment [2] concerns C57B/6 mice. The experiment is described as follows: Acute YKL-05-093 administration: bone gene expression and sclerostin immunohistochemistry. Type of experiment: in vivo, mouse. The note with it: 2 hours. How it is done:
FIGS. 7A to 7I: Effects of YKL-05-093 administration on bone gene expression in vivo. (FIGS. 7A and 7B) 8 week old C57B/6 mice (n=4/group) were treated with the indicated dose of YKL-05-093 via intraperitoneal injection. 2 hours later, bone RNA was isolated and transcript abundance was measured by RT-qPCR. # indicates p<0.05 versus vehicle, and * indicates p<0.01 versus vehicle by Student's unpaired 2 tailed t-test. (FIG. 7C) Left: sclerostin immunohistochemistry was performed 2 hours after intraperitoneal injection with either vehicle or YKL-05-093 (20 μmol/kg). Right: quantification of sclerostin-positive cortical osteocytes, n=4 mice per treatment group, * indicated p<0.01 versus vehicle. (FIGS. 7D to 7I) Genes regulated by PTH and YKL-05-093 in vitro are also regulated by YKL-05-093 in vivo. Mice were treated with YKL-05-093 (20 μmol/kg) and bone RNA collected 2 hours later as in FIG. 7A. * indicates p<0.05 versus vehicle. In FIGS. 7A, 7B, and 7D to 7I, “umol” denotes μmol. In FIGS. 7D to 7I, each of the right bars corresponds to YKL-05-093.
All animals were housed in the Center for Comparative Medicine at the Massachusetts General Hospital, and all experiments were approved by the hospital's Subcommittee on Research Animal Care. HDAC5-null mice (70) and HDAC4 f/f mice (71) were generously provided by Dr. Eric Olson (University of Texas Southwestern Medical Center, Dallas, TX) and were backcrossed to C57B/6 mice for at least 6 generations. DMP1-Cre mice (27) were generously provided by Dr. Jian (Jerry) Feng (Texas A&M University, Baylor College of Dentistry, Dallas, TX). “DKO” HDAC4/5 mice were of the following genotype: HDAC4f/f; HDAC5−/−; DMP1-Cre. SIK2 f/f mice were as described (40), and were bred to DMP1-Cre animals to generate SIK2^OcyKO mice. ES cells carrying the targeted SOST allele Sost^tm1(KOMP)Vleg, in which the SOST coding sequence has been replaced by LacZ and floxed Neo cassette, were obtained from the Knockout Mouse Project (KOMP) Repository. Clone VG10069-BE8 was injected into blastocysts, and the resulting SOST+/− mice were crossed to HDAC5 mutant animals to generate compound heterozygous mice. In all instances, skeletal phenotypes were evaluated in 8 week-old sex-matched littermates. For acute effects of PTH on bone gene expression, animals were treated with PTH (1-34, 300 μg/kg, subcutaneous administration) and then sacrificed 90 minutes later. For acute effects of YKL-05-093 on bone gene expression, animals were treated with the indicated doses of compound (dissolved in PBS+25 mM HCl) or solvent via intraperitoneal injections, and sacrificed 2 hours later. […]

Molecules are shown by their SMILES.

With `COc1ccc(N2C(=O)N(c3c(C)cccc3Cl)Cc3cnc(Nc4ccc(C5CCN(C)CC5)cc4OC)nc32)nc1` [YKL-05-099], in experiment [1], the “RANKL levels in bone RNA” value is recorded as “increased”, the “SOST in bone RNA” value is listed as “trend towards reduced SOST”, the bone formation rate entry is reported as “increased bone formation rate” and the cancellous bone mass entry is “increased cancellous bone mass”. Moreover, in experiment [1], the matrix apposition rate result was “trend towards increased matrix apposition rate”; the mineralizing surface entry is reported as “increased mineralizing surface”; the “osteoblast marker genes (osteocalcin and COL1A1)” value was “significantly increased”; the osteoblast numbers result is reported as “increased osteoblast numbers”. Besides, in experiment [1], the osteoclast numbers entry was “reduced osteoclast numbers” and the osteoid surface result is on record as “increased”.

For the molecule `COc1ccc(N2C(=O)N(c3c(C)cccc3C)Cc3cnc(Nc4ccc(C5CCN(C)CC5)c(OC)c4)nc32)c(OC)c1` [YKL-05-093], in experiment [2] (20 μmol/kg), the “bone expression of genes co-regulated by PTH and YKL-05-093 in vitro” value was “significant regulation of VDR, WNT4, NR4A2, NUAK1, PDGFA, and CD200 expression”; the “sclerostin protein levels by immunohistochemistry” value was “reductions in sclerostin protein levels”. Further, in experiment [2] (intraperitoneal), the “RANKL in osteocyte-enriched bone RNA” value was “RANKL up-regulation” and the “SOST in osteocyte-enriched bone RNA” value was “dose-dependent SOST suppression”.
